Where two headings read alike, the source gives them in different places.
Key:
[1] = Metabolic stability assessment in human liver microsomes (CYP and UGT incubation systems); type: in vitro ADME; conditions: pH 7.4, HLMs, toddalolactone 20 μM, 0-90 min
Description: The CYP reaction system (200 μL) consisted of 0.1 M potassium phosphate buffer (pH 7.4), an NADPH-generating system (1 mM NADPH, 10 mM G-6-P, 1 unit/mL G-6-PD, 4 mM MgCl2), and liver microsomes or recombinant human microsomes (supersomes). Each of the in vitro enzymatic assays using liver microsomes was linear with respect to incubation time and amount of protein. After a pre-incubation at 37 °C for 3 min, the reactions were initiated by adding NADP^+. After incubating for 60 min, the reactions were quenched by adding 200 μL of ice-cold acetonitrile. Samples were centrifuged at 18,000 g for 15 min at 4 °C and 10 μL of supernatant was analyzed using an HPLC system. […]
In the UGT reaction system, liver microsomes were incubated in 200 μL of the reaction system containing 4 mM UDPGA, 5 mM MgCl2, 20 µg/mL alamethicin, and 50 mM Tris-HCl buffer (pH 7.4). […] After centrifugation at 18,000 g for 15 min, 10 μL of the supernatant was analyzed by HPLC.
Toddalolactone (20 μM) was incubated with different liver microsomes, including HLMs, DLMs, PLMs, MLMs, RAMs, RLMs or MIMs in oxidative metabolism and glucuronidation reaction systems. […] The mixtures were centrifuged at 18,000 g for 15 min at 4 °C and then 10 μL of the supernatant was analyzed by HPLC. […]
The peak areas of toddalolactone and its metabolites were detected using a HPLC system (Shimadzu, Kyoto, Japan). […]

[2] = system: CYP1A1; experiment: Western blot of CYP1A1 protein expression in HepG2 cells; type: cell-based; conditions: 50 μM, 24 h, vs control (0 μM), p < 0.05
Description: Hep G2 cells were seeded into 100 mm Petri dishes and treated with different concentrations of toddalolactone (0, 10 and 50 µmol/L) for 24 h. Total protein was extracted using RIPA lysis buffer containing proteinase inhibitor (BestBio, Shanghai, China). After the protein concentration was measured using a bicinchoninic acid (BCA) assay kit (Beyotime, Shanghai, China), samples were electrophoretically transferred to polyvinylidene difluoride (PVDF) membranes. After blocking with TTBS (0.5% Tween 20, 10 mM Tris-HCl, pH 7.5, 150 mM NaCl) containing 5% non-fat milk for 1 h at room temperature, the membrane was incubated with antibodies against β-Actin, CYP1A1, and CYP3A5 overnight at 4 °C. Then, membranes were washed with TBS (10 mM Tris-HCl, pH 7.5, 150 mM NaCl) containing 0.05% Tween 20 three times and further incubated with HRP-conjugated secondary antibodies against rabbit (for β-actin, CYP1A1 and CYP3A5) for 1 h at room temperature.

## COc1cc2oc(=O)ccc2c(OC)c1C[C@@H](O)C(C)(C)O [toddalolactone]
[1]; CYP incubation system, read-out: half-life value (T1/2)
  half-life at 20 μM: 11.2 h
[1]; UGT incubation system, read-out: T1/2 value
  half-life at 20 μM: 1.38 h
[2]
  induction of CYP1A1 protein expression higher than that of the control: approximately 50%

— paper PMC9367672, “In vitro differences in toddalolactone metabolism in various species and its effect on cytochrome P450 expression” (Pharmaceutical Biology, 2022)
